The text below walks through data of patent US12390441B2, “Immunomodulating o-het/aryl azalides” (Zoetis Services LLC, priority 2020, dated 2025).

The test system of experiment [1] is M. haemolytica. The experiment in a line: In-vitro MIC model (CLSI broth micro-dilution). Type of experiment: cell-based, Mannheimia haemolytica. The following applies: for MIC: Mannheimia haemolytica, read-out: Comparative MIC.
For experiment [2], the system named is P. multocida. The experiment in a line: In-vitro MIC model (CLSI broth micro-dilution). The format is cell-based, Pasteurella multocida. Conditions: for MIC: Pasteurella multocida, read-out: Comparative MIC.
In experiment [3] the test system is S. aureus (29213 ATCC). Kind of experiment: In-vitro MIC model (CLSI broth micro-dilution). The following applies: Staphylococcus aureus, read-out: Comparative MIC. Type of experiment: cell-based. (In general: Broth dilution looks for growth in wells or tubes with falling amounts of substance.)
Experiment [4] concerns TNF-α. The experiment in a line: Whole blood assay, LPS stimulation, MSD cytokine detection. The following applies: Bos taurus, fresh whole bovine blood. The format is cell-based.
Experiment [5] has as its system IL-1β. The experiment is described as above. The format is cell-based, bovine. Conditions: fresh whole bovine blood, LPS stimulation; drug concentration giving overstimulation (OS) of IL-1β.
Experiment [6] concerns IL-6. The description is as above. The format is cell-based. The following applies: Bos taurus, fresh whole bovine blood.
For experiment [7], the system named is P. multocida 46572. The experiment in a line: In vivo mouse lung infection challenge model (murine). More on the design: species or system CD-1 female mice. Conditions: 46572, sc, 20 mg/kg, 240 h. Put shortly: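 CD-1 female mice were challenged intranasally with mid-log P. multocida 46572 (target 5×10^2 CFU/mouse), then given 20 mg/kg subcutaneously in buffered (~pH 5.4) propylene glycol/monothioglycerol/water. Mortality was followed to Day 10, analysed by generalized mixed model and survival analysis; harmonized survival is relative to vehicle and positive controls.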

Experiment [8] concerns M. haemolytica (OSU-012103-BHI). The following applies: inhaled or nasal.
The test system of experiment [9] is P. multocida. Kind of experiment: Murine P. multocida intranasal challenge study, survival. Type of experiment: in vivo, mice. Conditions: 5×10^3 CFU/mouse; subcutaneous 18 hours after challenge; tulathromycin 16 mg/kg, M9 32 mg/kg, ceftiofur 9 mg/kg.
For experiment [10], the system named is H. somni (A700025K). The experiment in a line: In-vitro MIC model (CLSI broth micro-dilution). Type of experiment: cell-based, Histophilus somni.
In experiment [11] the test system is IL-6. Kind of experiment: Plasma IL-6 biomarker in bovine M. haemolytica challenge.

Read-outs that look alike come from different tables or passages of the source. Some results are limits rather than exact numbers.

Turning to `CCCNC[C@]1(O)[C@H](C)O[C@@H](O[C@H]2[C@H](C)[C@@H](O[C@@H]3O[C@H](C)C[C@H](NC)[C@H]3Oc3ccccc3)[C@](C)(O)C[C@@H](C)CN[C@H](C)[C@@H](O)[C@](C)(O)[C@@H](CC)OC(=O)[C@@H]2C)C[C@@]1(C)OC` [Example E-112, (2R,3S,4R,5R,8R,10R,11R,12S,13S,14R)-2-ethyl-3,4,10-trihydroxy-13-(((2R,4R,5S,6S)-5-hydroxy-4-methoxy-4,6-dimethyl-5-((propylamino)methyl)tetrahydro-2H-pyran-2-yl)oxy)-3,5,8,10,12,14-hexamethyl-11-(((2S,3R,4S,6R)-6-methyl-4-(methylamino)-3-phenoxytetrahydro-2H-pyran-2-yl)oxy)-1-oxa-6-azacyclopentadecan-15-one], the MIC is over 64 µg/mL in experiment [1] (M. haemolytica 12726); over 64 µg/mL in experiment [1] (M. haemolytica 33396); over 64 µg/mL in experiment [1] (M. haemolytica 46571, bovine efficacy challenge strain); over 64 µg/mL in experiment [2] (P. multocida 43137); over 64 µg/mL in experiment [2] (P. multocida 46572, murine efficacy challenge strain); over 64 µg/mL in experiment [3]. Besides, the IC50 in experiment [4] was 10 µM; in experiment [6], 40 µM. Besides, in experiment [5], the “IL-1ß OS of LPS” value was 80 µM. In [7], the “% Survival” value is given as 53%. Further, the lung lesion scores in [8] (0.01 mg/kg) stood at 39; in experiment [8] (0.05 mg/kg), 41; in [8] (0.1 mg/kg), 27.
For `CO/N=C(\C(=O)N[C@@H]1C(=O)N2C(C(=O)O)=C(CSC(=O)c3ccco3)CS[C@H]12)c1csc(N)n1` [ceftiofur], in experiment [9], the “Survival at Day 7” value is given as about 90%.
`CCCN1C[C@H](C)[C@@H](O)[C@](C)(O)[C@@H](CC)OC(=O)[C@H](C)[C@@H](O[C@H]2C[C@@](C)(OC)[C@@H](O)[C@H](C)O2)[C@H](C)[C@@H](O[C@@H]2O[C@H](C)C[C@H](N(C)C)[C@H]2O)[C@](C)(O)C[C@H]1C` [gamithromycin, reference compound]: the “MIC, M. haemolytica strains” value in [1] (screening panel strains) fell in the range of 0.5 to 1 µg/mL. Also, the “MIC, P. multocida strains” value in experiment [2] (screening panel strains) fell in the range of 1 to 2 µg/mL. Moreover, the “MIC, H. somni strains” value in experiment [10] lay in the range of 0.25 to 8 µg/mL.
As for `CCCNC[C@]1(O)[C@H](C)O[C@@H](O[C@H]2[C@H](C)[C@@H](O[C@@H]3O[C@H](C)C[C@H](N(C)C)[C@H]3O)[C@](C)(O)C[C@@H](C)CN[C@H](C)[C@@H](O)[C@](C)(O)[C@@H](CC)OC(=O)[C@@H]2C)C[C@@]1(C)OC` [tulathromycin, (2R,3S,4R,5R,8R,10R,11R,12S,13S,14R)-11-(((2S,3R,4S,6R)-4-(dimethylamino)-3-hydroxy-6-methyltetrahydro-2H-pyran-2-yl)oxy)-2-ethyl-3,4,10-trihydroxy-13-(((2R,4R,5S,6S)-5-hydroxy-4-methoxy-4,6-dimethyl-5-((propylamino)methyl)tetrahydro-2H-pyran-2-yl)oxy)-3,5,8,10,12,14-hexamethyl-1-oxa-6-azacyclopentadecan-15-one], the “Survival at Day 7” value in experiment [9] is given as “about 80%”. In addition, in [11], the IL-6 levels result is listed as “significantly reduced”.

In general, MIC refers to the least concentration at which growth counts as inhibited. Broadly, the IC50 is the concentration that inhibits the measured activity by half. A high value points to weaker potency.
